As usually defined, the Cmax is the maximum level reached in the sampled fluid or tissue.

Where two headings read alike, the source gives them in different places.

Data set [1] has as its system hiPSCs differentiating into cardiomyocyte-like cells. Description: ReproTracker cardiomyocyte differentiation assay.
The test system of data set [2] is hiPSCs differentiating into hepatocyte-like cells. Description: ReproTracker hepatocyte differentiation assay.
For data set [3], the system named is hiPSCs differentiating into neural rosette-like cells.
Data set [4] deals with human. Particulars: Table 1 (R3 I (2021), Schulz et al. (2020) and others); cited from earlier work.
For data set [5] the following is noted: read-out: Human therapeutic cmax, Table 1 (R3 I (2021), Schulz et al. (2020) and others); cited from earlier work.
Data set [6] concerns hiPSCs trilineage differentiation (cardiomyocytes, hepatocytes, neural rosette-like cells). Description: ReproTracker trilineage differentiation, overall teratogenicity prediction. Conditions: for LOAEL compared with respective human therapeutic Cmax: Figure 4; for ReproTracker results LOAEL: lowest tested concentration with significant decrease of at least one biomarker, trilineage assay, 'N.d. up to x' given as > x.
Description: In ReproTracker, teratogenicity prediction of test compounds is based on a Weight of Evidence (WoE) approach, which considers both the significant decrease in biomarker expression and the morphological/functional changes following exposure to test compounds throughout differentiation assays.
This threshold, for any given biomarker, is defined as the average minus one time the standard deviation (SD) of the biomarker expression levels in solvent-exposed control cultures throughout the experiment. Reduced expression of the selected biomarkers below the set threshold in a concentration-dependent manner, upon exposure to a minimum of 2 consecutive non-cytotoxic concentrations would be considered significant (noted as +). A decrease in expression below the threshold without a clear dose-response would lead to an equivocal classification (noted as (+)). An increase in expression or a lack of response would be considered negative (noted as -). Disruption of morphology/functionality of the cultures upon compound exposure at the two highest tested concentrations in all biological replicates is considered as a morphological disruption (noted as +). Absence of significant effects results in a negative score (noted as -).
For each differentiation assay, the expression of two biomarkers and a morphological/functional read-out are considered. In the hepatocyte and cardiomyocyte differentiation, FOXA2 and BMP4 are considered germ-layer-specific biomarkers, while AFP and MYH6 are considered cell-specific biomarkers, respectively. When applying the WoE approach, the cell-specific biomarkers in hepatocyte and cardiomyocyte differentiation are given higher weight compared to the germ-layer specific biomarkers and morphology/functionality. For the neural differentiation, both PAX6 and NESTIN are given equal weight as they are considered cell-specific markers. In this case, both biomarkers are given higher weight than the morphological read-out.
Every measurement/observation is assigned a score (positive, negative, or equivocal). […] In the ReproTracker assay, a compound is identified as a teratogen if it receives a positive score in at least one of the trilineage differentiation assays (cardiomyocyte, hepatocyte, or neural differentiation). […] If neither biomarker expression levels nor morphology/functionality are affected in any of the differentiation assays, the response is considered negative.

Data set [7] has as its system hiPSCs differentiating into hepatocyte-like cells. Conditions: lineage call; footnote b: previously published data; ref Jamalpoor et al., 2022; cited from earlier work.
Data set [8] concerns hiPSCs trilineage differentiation (cardiomyocytes, hepatocytes, neural rosette-like cells). Conditions: based on effects on cardiomyocytes and/or hepatocytes only; ref Jamalpoor et al., 2022; cited from earlier work.
[9] abbreviates: lineage call (positive/equivocal/negative).

Take `Nc1cccc2c1C(=O)N(C1CCC(=O)NC1=O)C2=O` (centres unmarked) [Pomalidomide]: the “ReproTracker results Cardiomyocyte-like cells” value in data set [1] (setting [9]) is “Positive”. Also, the “ReproTracker results Hepatocyte-like cells” value in data set [2] (setting [9]) is recorded as “Positive”. The “ReproTracker results Neural rosette-like cells” value in data set [3] (setting [9]) is reported as “Positive”. Further, the “In vivo classification H” value in data set [4] was “T (presumed)”. Moreover, the Cmax in data set [5] is 0.3 to 0.4 µM. Further, in data set [6], the “LOAEL compared with respective human therapeutic Cmax” value is given as “higher” and the “ReproTracker results LOAEL” value is reported as at most 12.5 µM.
Turning to `COc1ccc([C@@H]2Sc3ccccc3N(CCN(C)C)C(=O)[C@@H]2OC(C)=O)cc1` [Diltiazem], the “ReproTracker results Neural rosette-like cells” value in data set [3] is “Positive”. In addition, the “ReproTracker results Hepatocyte-like cells” value in data set [7] is “Positive”. Further, the “LOAEL before inclusion of the neural differentiation readout” value in data set [8] is 31 µM. In addition, the Cmax in data set [5] is 0.06 to 0.3 µM. Further, in data set [6], the “LOAEL compared with respective human therapeutic Cmax” value is listed as “higher” and the “ReproTracker results LOAEL” value is listed as at most 7.8 µM. Besides, the “ReproTracker results LOAEL” value in data set [6] (listed as diltiazem) is on record as at most 7.8 µM.
Regarding `CO` [Methanol], the “ReproTracker results Cardiomyocyte-like cells” value in data set [1] is listed as “Negative”. For the same compound, in data set [2], the “ReproTracker results Hepatocyte-like cells” value is “Negative”. Moreover, the “ReproTracker results Neural rosette-like cells” value in data set [3] is recorded as “Negative”. The “In vivo classification H” value in data set [4] is recorded as “NT (presumed)”. In data set [5], the Cmax is 98.7 µM. Besides, in data set [6], the “ReproTracker results LOAEL” value is on record as “N.d. up to 1000 µM”.

(Values after article PMC12508576, “Implementing a trilineage differentiation in the ReproTracker assay for improved teratogenicity assessment” (Frontiers in Toxicology, 2025).)
